Here are results for ten compounds from ChEMBL document CHEMBL2069212, “Identification and in vivo and in vitro characterization of long acting and melanocortin 4 receptor (MC4-R) selective α-melanocyte-stimulating hormone (α-MSH) analogues” (J Med Chem, 2012).

Molecules are shown by their SMILES. Activity calls are given as the source filed them. The calls are words filed in the database; no cut-off is given here.

For orientation: Ki means the equilibrium dissociation constant of an inhibitor or competing ligand from its target. By EC50 is commonly meant the concentration needed to bring the measured effect to its halfway point.

For assay [1], the system named is Rattus norvegicus. Kind of assay: Antiobesity activity in Sprague-Dawley rat assessed as reduction of food intake at 3 mg/kg, sc qd measured up to 7 hrs relative to control. The assay is classed as functional. Details: scale not given: the % may be the effect or the level left. As to conditions: route subcutaneous.
Assay [2] has as its system Rattus norvegicus. Kind of assay: Antiobesity activity in Sprague-Dawley rat assessed as reduction of food intake at 3 mg/kg, sc qd measured after 7 to 24 hrs relative to control. The assay is classed as functional. Details: scale not given: the % may be the effect or the level left. The conditions noted are these: route subcutaneous.
For assay [3], the target named is T1, Melanocortin receptor 4 (Homo sapiens, UniProt P32245). Kind of assay: Displacement of [125I]-NAD-alpha-MSH from MC4 receptor after 2 hrs by gamma counting in presence of ovalbumin. On the technique in general: Displacement assays read how much labelled ligand stays bound in the presence of the test substance.
For assay [4], the system named is Rattus norvegicus. In words: Antiobesity activity in Sprague-Dawley rat assessed as reduction of food intake at 3 mg/kg, sc qd measured after 24 to 48 hrs relative to control. Format: functional. As to conditions: route subcutaneous.
In assay [5] the target is Melanocyte-stimulating hormone receptor (Homo sapiens, UniProt Q01726). Kind of assay: Displacement of [125I]-NAD-alpha-MSH from human recombinant MC1 receptor expressed in BHK570 cells after 90 mins in presence of ovalbumin. Format: cell-based.
Assay [6] has as its target T1, Melanocortin receptor 4. In words: Agonist activity at human recombinant MC4 receptor expressed in BHK570 cells assessed as induction of […] accumulation in presence of 0.1% human serum albumin. The assay is classed as functional, cell-based.
The next assay addresses Melanocortin receptor 5 (Homo sapiens, UniProt P33032). In words: Displacement of [125I]-NAD-alpha-MSH from human recombinant MC3 receptor human MC5 expressed in BHK570 cells after 1 hr in presence of ovalbumin. Format: cell-based.
For a further assay, the target named is Melanocortin receptor 3 (Homo sapiens, UniProt P41968). Kind of assay: Displacement of [125I]-NAD-alpha-MSH from human recombinant MC3 receptor expressed in BHK570 cells after 1 hr in presence of ovalbumin. Format: cell-based.
For assay [7], the target named is Melanocortin receptor 4 (Rattus norvegicus) (UniProt P70596). In words: Agonist activity at rat MC4 receptor. The assay is classed as functional.
Melanocortin receptor 4 (Rattus norvegicus), sequence (P70596 whole entry): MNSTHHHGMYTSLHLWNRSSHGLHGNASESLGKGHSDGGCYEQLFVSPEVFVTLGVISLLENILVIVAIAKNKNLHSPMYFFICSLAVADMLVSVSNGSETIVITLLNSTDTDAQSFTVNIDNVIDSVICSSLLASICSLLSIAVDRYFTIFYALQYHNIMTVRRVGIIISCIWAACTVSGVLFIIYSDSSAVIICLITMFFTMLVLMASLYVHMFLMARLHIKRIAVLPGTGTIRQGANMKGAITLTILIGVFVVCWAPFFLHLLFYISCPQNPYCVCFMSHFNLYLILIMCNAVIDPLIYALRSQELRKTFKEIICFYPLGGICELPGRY

Melanocortin receptor 3, sequence (P41968 whole entry): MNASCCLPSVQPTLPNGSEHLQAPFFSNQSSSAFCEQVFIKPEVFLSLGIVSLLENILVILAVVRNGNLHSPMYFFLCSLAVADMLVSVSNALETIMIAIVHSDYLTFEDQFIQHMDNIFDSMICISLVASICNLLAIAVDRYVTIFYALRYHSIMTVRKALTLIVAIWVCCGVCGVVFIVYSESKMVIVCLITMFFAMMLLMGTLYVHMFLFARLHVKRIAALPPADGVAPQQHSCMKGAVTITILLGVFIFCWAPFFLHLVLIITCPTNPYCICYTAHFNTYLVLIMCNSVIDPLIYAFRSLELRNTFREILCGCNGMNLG
T1 sequence (P32245 whole entry): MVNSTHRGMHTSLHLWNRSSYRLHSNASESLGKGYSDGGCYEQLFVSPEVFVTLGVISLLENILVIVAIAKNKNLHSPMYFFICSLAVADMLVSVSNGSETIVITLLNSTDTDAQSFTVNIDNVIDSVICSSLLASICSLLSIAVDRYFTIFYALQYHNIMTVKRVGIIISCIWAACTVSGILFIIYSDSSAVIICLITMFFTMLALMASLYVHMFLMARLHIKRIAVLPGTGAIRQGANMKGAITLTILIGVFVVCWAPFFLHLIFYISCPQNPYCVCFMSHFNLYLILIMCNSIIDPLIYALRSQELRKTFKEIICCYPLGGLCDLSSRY
Melanocortin receptor 5, sequence (P33032 whole entry): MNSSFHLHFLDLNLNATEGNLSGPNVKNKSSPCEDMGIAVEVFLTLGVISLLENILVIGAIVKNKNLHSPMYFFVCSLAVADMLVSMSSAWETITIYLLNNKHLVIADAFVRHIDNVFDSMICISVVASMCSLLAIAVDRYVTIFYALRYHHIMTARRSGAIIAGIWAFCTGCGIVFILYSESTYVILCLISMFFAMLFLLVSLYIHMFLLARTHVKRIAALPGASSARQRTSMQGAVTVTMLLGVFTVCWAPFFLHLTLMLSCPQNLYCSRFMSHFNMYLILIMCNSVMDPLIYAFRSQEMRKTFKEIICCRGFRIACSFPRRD
Melanocyte-stimulating hormone receptor, sequence (Q01726 whole entry): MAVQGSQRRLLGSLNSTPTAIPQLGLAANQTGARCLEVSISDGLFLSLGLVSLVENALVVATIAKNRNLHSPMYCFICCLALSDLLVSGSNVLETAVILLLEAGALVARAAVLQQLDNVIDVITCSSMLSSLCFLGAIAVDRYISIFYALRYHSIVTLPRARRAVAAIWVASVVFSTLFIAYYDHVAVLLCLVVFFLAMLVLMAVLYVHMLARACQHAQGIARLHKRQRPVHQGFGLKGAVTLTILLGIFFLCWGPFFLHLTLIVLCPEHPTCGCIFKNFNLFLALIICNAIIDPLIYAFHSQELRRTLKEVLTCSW

In the case of `CCCCCCCCCCCCCCCC(=O)NCC(=O)NCC(=O)NCC(=O)NCC(=O)NCC(=O)N[C@@H](CCCC)C(=O)N[C@H]1CCC(=O)NCCCC[C@@H](C(N)=O)NC(=O)[C@H](Cc2c[nH]c3ccccc23)NC(=O)[C@H](CCCNC(=N)N)NC(=O)[C@@H](Cc2ccccc2)NC(=O)[C@@H]2C[C@@H](O)CN2C1=O`, the values for the Activity in the assay on Rattus norvegicus [1] and in the assay on Rattus norvegicus [2] were 110% and 76%, respectively. The Ki amounted to 0.33 nM at Melanocortin receptor 4 [3], 130 nM in assay [5], 3 nM at Melanocortin receptor 5 and 8 nM on Melanocortin receptor 3. In the assay on Rattus norvegicus [4], the “Food intake relative to control” value was found to be 94%. In addition, the EC50 on Melanocortin receptor 4 [6] was 1 nM.
For the compound `CCCC[C@H](NC(=O)[C@H](CO)NC(=O)[C@H](Cc1cnc[nH]1)NC(=O)[C@H](CCC(N)=O)NC(=O)[C@H](CO)NC(=O)CNC(=O)COCCOCCNC(=O)CCCCCCCCCCCCCCCc1nnn[nH]1)C(=O)N[C@H]1CCC(=O)NCCCC[C@@H](C(N)=O)NC(=O)[C@H](Cc2c[nH]c3ccccc23)NC(=O)[C@H](CCCNC(=N)N)NC(=O)[C@@H](Cc2ccccc2)NC(=O)[C@@H]2C[C@@H](O)CN2C1=O`, the values for the Activity in the assay with Rattus norvegicus [1] and in the assay with Rattus norvegicus [2] were 79% and 56%, respectively. For the same compound, the Ki at Melanocortin receptor 4 [3] was found to be 0.2 nM; in [5], 1200 nM; at Melanocortin receptor 5, 15 nM; on Melanocortin receptor 3, 67 nM. Moreover, the “Food intake relative to control” value in the assay on Rattus norvegicus [4] stood at 92%. In addition, the EC50 on Melanocortin receptor 4 [6] was determined as 170 nM.
For `CCCC[C@H](NC(=O)[C@H](CN(C)C)NC(=O)[C@H](Cc1cnc[nH]1)NC(=O)[C@H](CCC(N)=O)NC(=O)[C@H](CO)NC(=O)CNC(=O)COCCOCCNC(=O)CCCCCCCCCCCCCCCc1nnn[nH]1)C(=O)N[C@H]1CCC(=O)NCCCC[C@@H](C(N)=O)NC(=O)[C@H](Cc2c[nH]c3ccccc23)NC(=O)[C@H](CCCNC(=N)N)NC(=O)[C@@H](Cc2ccccc2)NC(=O)[C@@H]2C[C@@H](O)CN2C1=O`, the Activity in the assay with Rattus norvegicus [1] turned out to be 62%; in the assay with Rattus norvegicus [2] it was 60%. Besides, the Ki on Melanocortin receptor 4 [3] was 0.13 nM; in assay [5], 440 nM; on Melanocortin receptor 5, 2.9 nM; on Melanocortin receptor 3, 11 nM. Moreover, the “Food intake relative to control” value with Rattus norvegicus [4] was 82%. The EC50 at Melanocortin receptor 4 [6] came out at 130 nM.
As to `CCCC[C@H](NC(=O)[C@H](CN)NC(=O)[C@H](Cc1cnc[nH]1)NC(=O)[C@H](CCC(N)=O)NC(=O)[C@H](CO)NC(=O)CNC(=O)COCCOCCNC(=O)CCCCCCCCCCCCCCCc1nnn[nH]1)C(=O)N[C@H]1CCC(=O)NCCCC[C@@H](C(N)=O)NC(=O)[C@H](Cc2c[nH]c3ccccc23)NC(=O)[C@H](CCCNC(=N)N)NC(=O)[C@@H](Cc2ccccc2)NC(=O)[C@@H]2C[C@@H](O)CN2C1=O`, the figures for the Activity in the assay on Rattus norvegicus [1] and in the assay on Rattus norvegicus [2] were 49% and 45%, respectively. In addition, the outcome in [7] was Active. In addition, the “Food intake relative to control” value in the assay on Rattus norvegicus [4] is given as 73%.
With `CCCCCCCCCCCCCCCC(=O)NCC(=O)N[C@@H](CO)C(=O)N[C@@H](CCC(N)=O)C(=O)N[C@@H](CCCCNC(=N)N)C(=O)N[C@@H](CO)C(=O)N[C@@H](CCCC)C(=O)N[C@H]1CCC(=O)NCCCC[C@@H](C(N)=O)NC(=O)[C@H](Cc2c[nH]c3ccccc23)NC(=O)[C@H](CCCNC(=N)N)NC(=O)[C@@H](Cc2ccccc2)NC(=O)[C@@H]2C[C@@H](O)CN2C1=O`, the Activity in the assay with Rattus norvegicus [1] is on record as 71%; in the assay on Rattus norvegicus [2], 57%. For the same compound, the Ki on Melanocortin receptor 4 [3] was 0.37 nM; in assay [5] it was 3.2 nM; on Melanocortin receptor 5, 0.47 nM; on Melanocortin receptor 3, 2 nM. In addition, the “Food intake relative to control” value in the assay on Rattus norvegicus [4] was determined as 82%. Also, on Melanocortin receptor 4 [6], the EC50 came to 0.04 nM.
Take `CCCC[C@H](NC(=O)[C@H](CNC(C)C)NC(=O)[C@H](Cc1cnc[nH]1)NC(=O)[C@H](CCC(N)=O)NC(=O)[C@H](CO)NC(=O)CNC(=O)COCCOCCNC(=O)CCCCCCCCCCCCCCCc1nnn[nH]1)C(=O)N[C@H]1CCC(=O)NCCCC[C@@H](C(N)=O)NC(=O)[C@H](Cc2c[nH]c3ccccc23)NC(=O)[C@H](CCCNC(=N)N)NC(=O)[C@@H](Cc2ccccc2)NC(=O)[C@@H]2C[C@@H](O)CN2C1=O`: the Activity was determined as 50% in the assay with Rattus norvegicus [1] and 40% in the assay with Rattus norvegicus [2]. The Ki at Melanocortin receptor 4 [3] is 0.26 nM; in assay [5], 270 nM; at Melanocortin receptor 5, 3.4 nM; at Melanocortin receptor 3 it was 13 nM. For the same compound, the “Food intake relative to control” value in the assay with Rattus norvegicus [4] is given as 72%. For the same compound, the EC50 on Melanocortin receptor 4 [6] came out at 15 nM.
For the compound `CCCC[C@H](NC(=O)[C@H](CO)NC(=O)[C@H](Cc1cnc[nH]1)NC(=O)[C@H](CCC(N)=O)NC(=O)[C@H](CO)NC(=O)CNC(C)=O)C(=O)N[C@H]1CCC(=O)NCCCC[C@@H](C(N)=O)NC(=O)[C@H](Cc2c[nH]c3ccccc23)NC(=O)[C@H](CCCNC(=N)N)NC(=O)[C@@H](Cc2ccccc2)NC(=O)[C@@H]2C[C@@H](O)CN2C1=O`, the Activity in the assay on Rattus norvegicus [1] amounted to 55%; with Rattus norvegicus [2], 99%. Besides, the Ki on Melanocortin receptor 4 [3] amounted to 4.6 nM; in [5], 200 nM; on Melanocortin receptor 5, 5.1 nM; on Melanocortin receptor 3, 45 nM. The “Food intake relative to control” value with Rattus norvegicus [4] stood at 103%. Moreover, at Melanocortin receptor 4 [6], the EC50 was 2 nM.
As to `CCCC[C@H](NC(=O)[C@H](CCCNC(=N)N)NC(=O)[C@H](Cc1cnc[nH]1)NC(=O)[C@H](CCC(N)=O)NC(=O)[C@H](CO)NC(=O)CNC(=O)COCCOCCNC(=O)CCCCCCCCCCCCCCCc1nnn[nH]1)C(=O)N[C@H]1CCC(=O)NCCCC[C@@H](C(N)=O)NC(=O)[C@H](Cc2c[nH]c3ccccc23)NC(=O)[C@H](CCCNC(=N)N)NC(=O)[C@@H](Cc2ccccc2)NC(=O)[C@@H]2C[C@@H](O)CN2C1=O`, the results for the Activity with Rattus norvegicus [1] and with Rattus norvegicus [2] were 46% and 51%, respectively. For the same compound, the Ki at Melanocortin receptor 4 [3] is 0.08 nM; in assay [5], 44 nM; at Melanocortin receptor 5, 3 nM; on Melanocortin receptor 3, 27 nM. Besides, the “Food intake relative to control” value with Rattus norvegicus [4] was found to be 83%. Moreover, the EC50 at Melanocortin receptor 4 [6] was found to be 4.7 nM.
Turning to `CCCCCCCCCCCCCCCC(=O)NCC(=O)N[C@@H](CO)C(=O)N[C@@H](CCC(N)=O)C(=O)N[C@@H](Cc1cnc[nH]1)C(=O)N[C@@H](CO)C(=O)N[C@@H](CCCC)C(=O)N[C@H]1CCC(=O)NCCCC[C@@H](C(N)=O)NC(=O)[C@H](Cc2c[nH]c3ccccc23)NC(=O)[C@H](CCCNC(=N)N)NC(=O)[C@@H](Cc2ccccc2)NC(=O)[C@@H]2C[C@@H](O)CN2C1=O`, the Activity with Rattus norvegicus [1] is reported as 63%; in the assay with Rattus norvegicus [2], 58%. The Ki at Melanocortin receptor 4 [3] amounted to 0.12 nM; in assay [5], 8 nM; on Melanocortin receptor 5, 1.6 nM; at Melanocortin receptor 3 it was 2.5 nM. In the assay on Rattus norvegicus [4], the “Food intake relative to control” value amounted to 81%. For the same compound, the EC50 at Melanocortin receptor 4 [6] amounted to 0.17 nM.
With `CCCC[C@H](NC(=O)[C@@H](N)CNC(=O)[C@H](Cc1cnc[nH]1)NC(=O)[C@H](CCC(N)=O)NC(=O)[C@H](CO)NC(=O)CNC(=O)COCCOCCNC(=O)CCCCCCCCCCCCCCCc1nnn[nH]1)C(=O)N[C@H]1CCC(=O)NCCCC[C@@H](C(N)=O)NC(=O)[C@H](Cc2c[nH]c3ccccc23)NC(=O)[C@H](CCCNC(=N)N)NC(=O)[C@@H](Cc2ccccc2)NC(=O)[C@@H]2C[C@@H](O)CN2C1=O`, the Activity with Rattus norvegicus [1] worked out at 82%; in the assay on Rattus norvegicus [2], 54%. For the same compound, in assay [7], the result was Active. In addition, in the assay with Rattus norvegicus [4], the “Food intake relative to control” value is 81%.
